# Assay results from paper PMC5494547 (2015).
# Legend:
# [1] = tested on: MBA3 (DNA, aptamer) GCGCGCGGGGAGTATTGCGGAGGAGCGCGC; assay: circular dichroism; conditions: CD unchanged by PPFP-Br; tighter folded G-quadruplex than ATP/MBA1
# [2] = tested on: MBA1 (DNA, aptamer) TACACTGGGGAGTATTGCGGAGGAAGTGTA; assay: circular dichroism; conditions: 1 µM MBA1, 50 mM ATP; quadruplex bands at 265 and 295 nm
smiles,measurement,setting,value
Nc1ncnc2c1ncn2[C@@H]1O[C@H](COP(=O)(O)OP(=O)(O)OP(=O)(O)O)[C@@H](O)[C@H]1O,binding,[1],yes
same,binding,[2],yes
